Results reported in US9526721B2, “Tetrahydroprotoberbine compounds and uses thereof in the treatment of neurological, psychiatric and neurodegenerative diseases” (priority 2012, dated 2016).
Entries after “also recorded” stand apart in the source; their conditions may differ.

How the values were obtained:
[1] = target: T1, 5HT1A (Homo sapiens, UniProt P08908); assay: Receptor binding, 5HT1A; conditions: receptor expressed in CHO cells
T1 construct: host or cells: CHO cells
T1 sequence (P08908 1-422): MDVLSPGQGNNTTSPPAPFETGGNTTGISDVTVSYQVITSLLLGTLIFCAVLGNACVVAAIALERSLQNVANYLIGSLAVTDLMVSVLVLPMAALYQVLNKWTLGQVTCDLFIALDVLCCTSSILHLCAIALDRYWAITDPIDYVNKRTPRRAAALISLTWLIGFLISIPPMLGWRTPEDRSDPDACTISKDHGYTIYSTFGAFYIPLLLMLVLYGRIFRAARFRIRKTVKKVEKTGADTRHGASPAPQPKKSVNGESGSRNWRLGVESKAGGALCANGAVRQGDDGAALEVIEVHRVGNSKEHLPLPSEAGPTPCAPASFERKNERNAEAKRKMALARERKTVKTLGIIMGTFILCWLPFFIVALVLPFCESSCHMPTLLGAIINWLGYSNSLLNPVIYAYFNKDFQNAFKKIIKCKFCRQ
Procedure: (§1) All receptors tested were heterologously expressed CHO cells and IC50 values were determined by a non-linear, least squares regression analysis using MathIQ (ID Business Solution Ltd, UK). Ki was calculated using the equation of Cheng and Prusoff (1973, Biochem. Pharmacol 22:23099-3108) derived from the observed IC50 of the tested compound, the concentration of radioligand employed in the assay, and the historical values for the Kd of the ligand (obtained experimentally at MDS Pharma Services).
(§2) All receptors were heterologously expressed CHO cells and IC50 values were determined by a non-linear, least squares regression analysis using MathIQ (ID Business Solution Ltd, UK). K1 was calculated (Y. Cheng & Prusoff 1973) from the observed IC50 of the tested compound, the concentration of radioligand employed in the assay, and the historical values for the Kd of the ligand (obtained experimentally at MDS Pharma Services).

[2] = target: T2, 5HT4 (Homo sapiens, UniProt Q13639); assay: Receptor binding, 5HT4
T2 construct: host or cells: CHO cells
Procedure: as §1

[3] = target: T3, 5HT6 (Homo sapiens, UniProt P50406); assay: Receptor binding, 5HT6; conditions: CHO cells
T3 construct: host or cells: CHO cells
Procedure: as §1

[4] = target: T4, D5 (Homo sapiens, UniProt P21918); assay: Receptor binding, dopamine D5; conditions: receptor expressed in CHO cells
T4 construct: host or cells: CHO cells
Procedure: All receptors tested were heterologously expressed CHO cells and IC50 values were determined by a non-linear, least squares regression analysis using MathIQ (ID Business Solution Ltd, UK).
All receptors were heterologously expressed CHO cells and IC50 values were determined by a non-linear, least squares regression analysis using MathIQ (ID Business Solution Ltd, UK).

[5] = target: T5, Dopamine D1 receptors (Homo sapiens, UniProt P21728); assay: Dopamine D1 receptor Adenylyl Cyclase Cellular Assay (cAMP, HTRF); type: cell-based; conditions: for IC50: D1 antagonism, cAMP, CHO cells, read-out: IC50 of antagonistic response; for % Response Agonist: increase in cAMP relative to dopamine response; for % Response Agonist / % Response Antagonist: D1 in CHO cells; for % Response Antagonist: inhibition of dopamine-induced cAMP increase
T5 construct: host or cells: CHO cells
Text: Methods employed in this Example were adapted from Liu et al (1992, Mol Endocrinol 92:1815-1824) and Zhou et al (1990, Nature 347:76-79) to maximize reliability and reproducibility. Reference standards were run as an integral part of each assay to ensure the validity of the results obtained. […] (+)-Butaclamol was used as a positive control for the assay assessing antagonism. Homogeneous fluorescence methodology HTRF homogeneous fluorescence quantitation methodology was used to measure the levels of cAMP. The criterion for significant agonist activity is ≧50% increase in cAMP relative to dopamine response. The criteria for significant antagonist activity ≧50% inhibition of dopamine-induced cAMP increase.

[6] = tested on: rats; assay: Catalepsy (bar test); type: in vivo, rat; conditions: SC; for catalepsy (immobilized contact time): across doses tested
Procedure: Testing occurred in a plexiglas box (28 cm×45 cm×20 cm) containing a horizontal steel bar located 8 cm above floor level. […] After injection animals were returned to the test box and catalepsy testing occurred at 1, 15, 30, and 45 minutes after injection. Testing at each time point lasted 2 min after the forepaws of each rat was placed on the bar. Behavior was recorded with a video camera (Cohu, Poway, Calif.) and scored off-line. The cumulative time spent immobilized with both forelimbs on the horizontal bar was scored for each 2 min test epoch. Videos selected at random were scored independently by a second observer and a high inter-rater reliability was observed (R^2=0.93, F=393.4, p<0.05).
Catalepsy testing was conducted as described in Example 12.

[7] = tested on: rats; assay: Social interaction in NVHL and sham rats; type: in vivo, rat; conditions: 1.0 mg/kg IP 15 minutes prior to testing
Text: Experimental rats were neonatal ventral hippocampal lesioned (NVHL) and control (Sham) animals. […] The SI environment consisted of a 83×90×30 cm open field with each surface painted black.

[8] = target: D1 (Homo sapiens, UniProt P21728); assay: Receptor binding, dopamine D1; design: host or cells: CHO cells; conditions: for Ki: receptor expressed in CHO cells, read-out: Ki, D1
Procedure: as §1, §2

[9] = tested on: rats; assay: Microdialysis of prefrontal cortex and nucleus accumbens; conditions: for 5-HIAA in NAc / DOPAC in NAc / HVA in NAc / dopamine level in NAc / 5-HIAA in PFC / DOPAC in PFC / HVA in PFC / dopamine level in PFC: microdialysis; for 5-HIAA in NAc / DOPAC in NAc / HVA in NAc / dopamine level in NAc: nucleus accumbens; for 5-HIAA in PFC / DOPAC in PFC / HVA in PFC / dopamine level in PFC: prefrontal cortex;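 for all read-outs here: dialysate collected every 10 min from freely moving rats, analysed by HPLC with electrochemical detection, after four stable baseline samples (under 10% variation) preceding drug dosing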
Procedure: Rats received subcutaneous injections of an analgesic (ketoprofen 0.05 mL or buprenorphine, 0.1 mL) and sterile saline (0.9% NaCl, ˜3 mL). Once shaved and cleaned, the heads were secured in the stereotaxic frame in flat skull position for bilateral implantation of stainless steel microdialysis guide cannulae (19 gauge×15 mm) in the nucleus accumbens (NAc) (from bregma +1.7 mm anterior and ±1.1 mm medial; from dura −1.0 mm ventral) or medial prefrontal cortex (mPFC) (+3.0 mm anterior, ±0.6 mm medial; −1.0 mm ventral). […] Rats were allowed to rest with heat support until they regained consciousness, and then given a one-week recovery period.
Microdialysis probes were assembled 1-2 days prior to microdialysis experiments. Probes were concentric in design, constructed from Filtral 12 AN69HF semi-permeable hollow fibres (2 mm length, 340 μm OD×4 mm, 65 kDalton molecular weight cut-off; Hospal, Neurnberg, Germany) and silica inlet-outlet lines (75/150 um ID/OD).
The day prior to microdialysis experiments, probes were connected to an Instech dual-channel liquid swivel (Plymouth Meeting, Pa.) and flushed with artificial cerebrospinal fluid (aCSF). […] Following DA recovery tests, probes were implanted via the guide cannulae (dialysis membrane spanned −4.8 to −6.8 mm ventrally for NAc; −1.6 to −3.6 mm for mPFC). Rats remained in the testing chamber overnight (14-16 hr) with aCSF perfusing continuously through the probes at 1 μL/min In the morning, microdialysis samples were collected at 10 min intervals and assayed for DA, DOPAC, homovanillic acid (HVA) and 5-HIAA content. Once baseline levels were determined to be stable for four consecutive samples (less than 10% fluctuation), the drug treatment phase of each experiment was initiated.
Microdialysis samples were analyzed immediately after collection using high pressure liquid chromatography (HPLC) with electrochemical detection. […] The mobile phase [70 mM sodium acetate buffer, 40 mg/L EDTA and 50 mg/L of sodium dodecyl sulfate (adjustable), pH 4.0, 10% methanol] flowed through the system at 0.17 mL/min EZChrome Elite software (Scientific Software, Pleasanton, Calif.) was used to acquire and analyze chromatographic data.
After the experiments, rats were deeply anesthetized, brains were removed and stored in 20% w/v sucrose and 4% v/v paraformaldehyde. Brains were sliced into 50 um coronal sections, stained with cresyl violet and examined for probe placement.
Microdialysis probes (2 mm active membrane) were implanted in the NAc and mPFC ˜16 hrs prior to start of the experiment and continuously perfused aCSF.

[10] = tested on: midbrain dopamine (DA) neurons; assay: Firing of midbrain dopamine neurons in slices (cell-attached recording); type: cell-based, Sprague Dawley rats; conditions: co-application with Quinpirole (500 nM)
Procedure: Horizontal midbrain slices (220 μm) were prepared from male Sprague Dawley rats (3-4 weeks old). Cell-attached voltage-clamp recordings were used to examine tonic firing rate of DA neurons at 31-32° C. using patch pipette and bathing solutions consisting of physiological saline. Putative DA neurons were identified by spontaneous pacemaker firing (1-3 Hz) with broad APs (≧2.0 ms). Identified cells not responsive to Quinpirole (500 nM), a D2 DA receptor agonist, were excluded from further recording. Cells were also filled with biocytin or Alexa for posthoc-identification using TH immunostaining.

[11] = tested on: rats; assay: Conditioned avoidance responding (CAR); conditions: SC, 100 CS-US pairings
Procedure: Conditioned avoidance responding (CAR) was performed in a two-way avoidance procedure with drug naive rats in four shuttle boxes (Med Associates, Vt., USA) each consisting of two compartments separated by an open door. Each compartment contained a wall-mounted speaker, house light and 5 photocells to detect the location of the animal. All experimental protocols and data acquisition were controlled by custom programs written in MED-PC.
Before training, each animal received two acclimation sessions lasting 30 min with only the house light illuminated. […] Pairings of the conditioned stimulus (CS) (white noise, ˜60 dB) and the unconditioned stimulus (US) (footshock, 0.75 mA) were presented at random intervals with a mean of 60 sec. The CS was presented for 10 sec. During this time, if the animal moved to the opposite side of the box, the white noise was silenced, no foot shock delivered, and an avoidance response was scored. Upon termination of the 10 sec tone, if the animal had not moved to the opposite side of the box, a foot-shock was administered for 2 sec. […] Failure to avoid or escape constituted a response failure and was scored accordingly. After reaching a criterion of 90% avoidances for a block of 20 trials, usually achieved with ˜100 CS-US pairings, each animal advanced to the drug-testing phase. Animals not meeting the criterion by 120 pairings were excluded from the study.
Pairings were presented just as during training and were scored in the same fashion. The test trial consisted of 100 CS-US pairings.

T5 sequence (P21728 whole entry): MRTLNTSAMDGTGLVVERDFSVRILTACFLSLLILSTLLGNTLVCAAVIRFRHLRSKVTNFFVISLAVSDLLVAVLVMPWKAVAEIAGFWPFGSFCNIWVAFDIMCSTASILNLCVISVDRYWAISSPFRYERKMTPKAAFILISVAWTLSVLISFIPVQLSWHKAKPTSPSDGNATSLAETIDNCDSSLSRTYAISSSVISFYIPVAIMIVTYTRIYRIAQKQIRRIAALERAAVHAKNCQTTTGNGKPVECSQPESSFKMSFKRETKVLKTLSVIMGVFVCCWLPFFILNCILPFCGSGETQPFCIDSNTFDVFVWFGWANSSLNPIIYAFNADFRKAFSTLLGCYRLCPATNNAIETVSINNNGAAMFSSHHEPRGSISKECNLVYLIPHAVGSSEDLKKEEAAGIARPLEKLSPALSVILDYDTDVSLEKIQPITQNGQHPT
D1, sequence (P21728 whole entry): as above
T3 sequence (P50406 whole entry, species assumed): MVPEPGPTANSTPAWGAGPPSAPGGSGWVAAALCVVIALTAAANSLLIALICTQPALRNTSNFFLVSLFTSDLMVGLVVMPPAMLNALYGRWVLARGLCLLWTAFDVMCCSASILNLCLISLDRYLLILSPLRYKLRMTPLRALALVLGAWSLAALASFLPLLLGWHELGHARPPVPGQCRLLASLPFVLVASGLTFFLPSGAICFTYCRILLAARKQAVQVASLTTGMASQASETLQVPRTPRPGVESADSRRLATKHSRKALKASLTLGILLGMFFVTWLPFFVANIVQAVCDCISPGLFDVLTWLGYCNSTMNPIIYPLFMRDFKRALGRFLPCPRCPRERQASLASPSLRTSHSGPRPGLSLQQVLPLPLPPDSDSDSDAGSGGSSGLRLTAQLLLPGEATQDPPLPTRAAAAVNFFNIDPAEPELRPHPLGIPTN
T2 sequence (Q13639 whole entry, species assumed): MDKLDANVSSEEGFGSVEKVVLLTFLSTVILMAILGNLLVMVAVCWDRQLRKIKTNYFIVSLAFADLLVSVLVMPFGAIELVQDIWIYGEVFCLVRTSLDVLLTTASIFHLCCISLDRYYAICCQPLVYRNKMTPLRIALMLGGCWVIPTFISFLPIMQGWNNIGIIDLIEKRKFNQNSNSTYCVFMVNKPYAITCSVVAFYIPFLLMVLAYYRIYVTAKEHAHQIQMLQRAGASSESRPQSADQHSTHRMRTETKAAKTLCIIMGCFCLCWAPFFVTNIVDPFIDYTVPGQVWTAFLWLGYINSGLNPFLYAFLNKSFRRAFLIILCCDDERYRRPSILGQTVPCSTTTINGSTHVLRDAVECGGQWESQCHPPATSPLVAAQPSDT
T4 sequence (P21918 whole entry): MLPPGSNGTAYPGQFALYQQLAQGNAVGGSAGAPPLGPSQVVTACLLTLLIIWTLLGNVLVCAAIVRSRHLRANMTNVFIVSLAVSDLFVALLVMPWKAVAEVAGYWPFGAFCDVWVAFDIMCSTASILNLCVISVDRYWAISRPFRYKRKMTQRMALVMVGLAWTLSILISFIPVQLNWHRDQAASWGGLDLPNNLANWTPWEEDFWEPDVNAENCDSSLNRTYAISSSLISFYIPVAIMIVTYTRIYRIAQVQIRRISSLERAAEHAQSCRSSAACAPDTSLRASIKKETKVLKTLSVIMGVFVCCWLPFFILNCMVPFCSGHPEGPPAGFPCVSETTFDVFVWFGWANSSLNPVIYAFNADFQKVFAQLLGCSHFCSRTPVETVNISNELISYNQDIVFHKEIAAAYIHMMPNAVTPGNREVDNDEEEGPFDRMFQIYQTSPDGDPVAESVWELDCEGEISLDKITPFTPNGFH

Row | SMILES | Ki [1] [nM] | inhibition at 10 µM [3] [%] | IC50 [5] [nM] | % Response Agonist [5] [%] | % Response Antagonist [5] [%] | catalepsy (immobilized contact time) [6] | social interaction in NVHL rats versus Sham controls [7] | binding affinity to the D1 receptor [8] | Ki [8] [nM] | 5-HIAA in NAc [9] | DOPAC in NAc [9] | HVA in NAc [9] | dopamine level in NAc [9] | 5-HIAA in PFC [9] | DOPAC in PFC [9] | HVA in PFC [9] | dopamine level in PFC [9] | further results
1 | COc1cc2c(cc1O)CN1CCc3cc(OC)c(O)cc3[C@H]1C2 [d-govadine] | 18200 | 9 | 2380 | 2 | 82 | No evidence of catalepsy | comparable levels of SI | strong binding affinity | 8.75 | not the NAc | no increase observed | no increase observed | not in the NAc | increased | increased | increased | selectively increased | inhibition at 10 µM ([2]; 10 μM, CHO cells): 42%; Ki [4]: 13.4 nM
2 | COc1cc2c(cc1O)CN1CCc3cc(OC)c(O)cc3[C@@H]1C2 [l-govadine] | 15200 | 12 | 16.6 | 2 | 87 | Catalepsy was observed | comparable levels of SI | strong affinity | 5.77 | No increase | increase | increase | increased | No increase | increase | increase | increased | Ki ([2]; receptor expressed in CHO cells): 2470 nM; time of peak cataleptic behavior post injection [6]: 15 min; antagonism of D2 autoreceptor-mediated decrease in tonic firing [10]: antagonized; suppression of conditioned avoidance responding (avoidances) [11]: Suppression of conditioned avoidance responding was observed; also recorded: suppresses CAR; DA efflux in NAc and mPFC compared to control ([9]; 1 mg/kg, Example 15): enhanced DA efflux
